Results published in PubChem BioAssay (NCI).
Where “and” joins values, the source holds several entries; their conditions need not be identical. Equal entries are not always repeated.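 How tested: cells in 96-well plates exposed to compound for 48 hours at five concentrations. GI50: concentration for 50% inhibition of growth. The concentration for full growth arrest is given as TGI.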

Columns and labels:
Assay in all cases: inhibition of tumour cell growth, NCI panel, 48 h
[1] = test system: MOLT-4 leukemia
[2] = test system: UACC-257 melanoma
[3] = test system: COLO 205 colon
[4] = test system: SNB-75 CNS
[5] = test system: OVCAR-4 ovarian
[6] = test system: SK-MEL-2 melanoma
[7] = test system: MDA-MB-435
[8] = test system: DU-145 prostate
[9] = test system: HS 578T breast
[10] = test system: PC-3 prostate

SMILES | TGI [1] | TGI [2] | TGI [3] | TGI [4] | TGI [5] | TGI [6] | GI50 [1] | GI50 [7] | TGI [7] | GI50 [2] | GI50 [8] | TGI [8] | GI50 [9] | TGI [9] | GI50 [10] | TGI [10] | GI50 [6] | GI50 [3] | GI50 [5] | GI50 [4]
COc1ccc(C2=NN(C(C)=O)c3nc4ccccc4nc3O2)cc1 | > 100 µM | > 100 µM | > 100 µM | 21.7 µM | 98.4 µM | > 100 µM | – | – | – | – | – | – | – | – | – | – | – | – | – | –
COc1ccc(OC)c(-c2cc(-c3ccc(Cl)cc3)nn2-c2ccccc2)c1 | > 100 µM | 49.1 µM | – | – | – | > 100 µM | 8.7 µM | 18.3 µM | 46.1 µM | 6.45 µM | 96.7 µM | > 100 µM | 18.5 µM | > 100 µM | 24.2 µM | > 100 µM | > 100 µM | – | – | –
COc1cc(/C=C2\C[C@H]3[C@@H]4CC=C5C[C@@H](O)CC[C@]5(C)[C@H]4CC[C@]3(C)[C@H]2O)ccc1OCCN1CCCCC1 | > 50 µM | 5.02 µM | – | – | – | > 50 µM | 3.07 µM | 0.945 µM | 1.8 µM | 1.61 µM | 1.61 µM | 4.58 µM | 1.44 µM | > 10.7 µM | 1.03 µM | 7.01 µM | 5 µM | – | – | –
COc1nc(NC2OC(COC(C)=O)C(OC(C)=O)C(OC(C)=O)C2OC(C)=O)c(N=C(C)C(C)=O)c(=O)n1C (stereo not drawn) | > 100 µM | > 100 µM | > 100 µM | > 100 µM | > 100 µM | > 100 µM | – | – | – | – | – | – | – | – | – | – | – | – | – | –
CC1(C)CC[C@]2(C(=O)NCCNCCN)CC[C@]3(C)C(=CC[C@@H]4[C@@]5(C)CCC(=O)C(C)(C)[C@@H]5CC[C@]43C)[C@@H]2C1 | 6.15 µM | 3.85 µM | 4.18 µM | – | 3.66 µM | 4.05 µM | 2.44 µM | 1.75 µM | 3.19 µM | 1.86 µM | 1.85 µM | 3.41 µM | 1.92 µM | 4.17 µM | 1.82 µM | 3.61 µM | 1.94 µM | 2.06 µM | 1.89 µM | –
Oc1ccc(Br)cc1C=NC1CCCCC1 | > 100 µM | > 100 µM | > 100 µM | – | > 100 µM | 74.2 µM | – | – | > 100 µM | – | – | > 100 µM | – | > 100 µM | – | > 100 µM | – | – | – | –
Cn1c(=O)nc2n(-c3ccc(F)c(F)c3)c3ccccc3nc-2c1=O | – | 20.1 µM | 15.7 µM | 75 µM | 21.1 µM | 55.3 µM | – | – | – | – | – | – | – | – | – | – | – | – | – | –
Cc1cccc2c(=O)c3c(sc12)c(NCCCN)nc1ccccc13 | 3.06 µM | 3.46 µM | 3.23 µM | 2.31 µM | 3.25 µM | 3.65 µM | 1.35 µM | 1.69 µM | 3.17 µM | 1.76 µM | 1.39 µM | 2.78 µM | – | – | 1.37 µM | 3.04 µM | 1.85 µM | 1.56 µM | 1.58 µM | 1.02 µM
CSc1ccc(Cc2cc(C(C)(C)C)cc(C(C)(C)C)c2O)cc1 | 23.8 µM | 28.2 µM | – | 29.7 µM | 28.9 µM | 16.3 µM | – | – | – | – | – | – | – | – | – | – | – | – | – | –
Cc1ccccc1SC(/C=C/NNC1=NC(c2ccccc2)C(c2ccccc2)=NN1)c1ccccc1 (stereo not drawn) | > 100 µM | > 100 µM | > 100 µM | 20.8 µM | 9.16 µM | 45.3 µM | – | – | – | – | – | – | – | – | – | – | – | – | – | –
O=[N+]([O-])c1cc(I)cc(/C=N/NS(=O)(=O)c2ccc(F)cc2)c1O | 57.7 µM | 62.3 µM | 32.4 µM | 66.3 µM | > 100 µM | 35.7 µM | – | – | – | – | – | – | – | – | – | – | – | – | – | –
CON1C(=O)C2(CCCCC2)C(=O)C12C=CC(C)CC2 (stereo not drawn) | > 100 µM | > 100 µM | > 100 µM | > 100 µM | – | > 100 µM | – | – | – | – | – | – | – | – | – | – | – | – | – | –
CC1CCCc2c1n[nH]c2CC1CC(=O)NC(=O)C1 (stereo not drawn) | > 100 µM | > 100 µM | > 100 µM | > 100 µM | > 100 µM | – | – | – | – | – | – | – | – | – | – | – | – | – | – | –
CC(=O)CCc1ccc(Oc2c3ccccc3nc3occc23)cc1 | – | 28 µM | 33.1 µM | 61 µM | > 100 µM | – | – | 17.7 µM | 43.9 µM | 14.4 µM | 14.8 µM | 34.1 µM | 20.4 µM | 44.5 µM | 14 µM | 41 µM | – | 16.8 µM | 37.6 µM | 22.4 µM
CCCCCCCCCCNC(=S)OC | 30.8 µM | 83.8 µM | – | > 100 µM | > 100 µM | – | – | – | – | – | – | – | – | – | – | – | – | – | – | –
Nc1ccc(C(=O)CC2(O)C(=O)Nc3ccccc32)cc1 (stereo not drawn) | > 100 µM | > 100 µM | > 100 µM | > 100 µM | > 100 µM | > 100 µM | – | – | – | – | – | – | – | – | – | – | – | – | – | –
COc1cccc(/C=C2\N=C(Cl)OC2=O)c1O | > 100 µM | > 100 µM | > 100 µM | > 93.3 µM | > 100 µM | > 100 µM | – | – | – | – | – | > 100 µM | – | – | – | – | – | – | – | –
CC(=O)N(N=O)c1ccc(N(N=O)C(C)=O)cc1 | > 100 µM | – | > 100 µM | > 100 µM | > 100 µM | > 100 µM | – | – | – | – | – | – | – | – | – | – | – | – | – | –
CC(=O)NNc1ncc(C(=O)/C=C/c2ccccc2C)s1 | > 100 µM | > 100 µM | > 100 µM | > 100 µM | – | > 100 µM | – | – | – | – | – | – | – | – | – | – | – | – | – | –
COC(=O)C(/C(=N/N)C(=O)Nc1cc(Cl)ccc1Cl)c1nc2ccc([N+](=O)[O-])cc2[nH]c1=O (stereo not drawn) | > 100 µM | > 100 µM | > 100 µM | – | > 100 µM | > 100 µM | – | – | – | – | – | – | – | – | – | – | – | – | – | –
CO[C@H]1/C=C/O[C@@]2(C)Oc3c(C)c(O)c4c(O)c(c(/C=N/N5C(C)CN(Cc6ccc(C#N)cc6)CC5C)c(O)c4c3C2=O)NC(=O)/C(C)=C\C=C\[C@H](C)[C@H](O)[C@@H](C)[C@@H](O)[C@@H](C)[C@H](OC(C)=O)[C@@H]1C (stereo partly drawn) | – | 15.8 µM | 16.4 µM | 18.5 µM | 26.4 µM | 15.9 µM | – | 8.58 µM | 23.5 µM | 6.35 µM | 8.16 µM | 15.3 µM | 8.83 µM | 20.3 µM | – | – | 7.92 µM | 6.82 µM | 7.49 µM | 7.25 µM
Cn1nc(-c2ccccc2)c2c(/C=C/c3ccc(F)cc3)onc2c1=O | > 100 µM | – | > 100 µM | – | – | – | – | – | – | – | – | – | – | – | – | – | – | – | – | –
CN1C(c2ccccc2)CC(=NO)CC1c1ccccc1 (stereo not drawn) | 62.2 µM and 69.3 µM | > 100 µM and 79.9 µM | 48 µM | > 100 µM | > 100 µM | > 100 µM | 23 µM | 61 µM | – | 26.8 µM | – | – | – | – | – | – | – | 33.6 µM | – | –
